Data published in US7390896B2, “Cyclic malonamides as inhibitors of Aβ protein production” (Bristol-Myers Squibb Pharma Corporation, priority 2000, dated 2008).

melting point | Compound
126 to 129 °C | CN1C(=O)[C@@H](NC(=O)C2(NC(=O)Cc3cc(F)cc(F)c3)CCCCC2)N=C(c2ccccc2)c2ccccc21
88 to 103 °C | CN1C(=O)[C@@H](NC(=O)C2(NC(=O)CCC3CCCC3)CCCCC2)N=C(c2ccccc2)c2ccccc21

More lines, now with the values behind:

Compound | melting point
CN1C(=O)[C@@H](NC(=O)C2(NC(=O)Cc3cc(F)cc(F)c3)CCCC2)N=C(c2ccccc2)c2ccccc21 | 112 to 117 °C
CN1C(=O)[C@@H](NC(=O)C2(NC(=O)Cc3cc(F)cc(F)c3)CC2)N=C(c2ccccc2)c2ccccc21 | 212 to 214 °C
CC(C)CCC(=O)NC1(C(=O)NC2N=C(C(C)(C)C)c3ccccc3N(C)C2=O)CCCC1 (stereo not shown) [Example 61, N-((N-[5-(tert-Butyl)-1-methyl-2-oxo(3H-benzo[f]1,4-diazepin-3-yl)]carbamoyl)cyclopentyl)-4-methylpentanamide] | 175 to 178 °C
CCCCN1C(=O)C(NC(=O)C2(NC(=O)CCC(C)C)CCCC2)N=C(C(C)(C)C)c2ccccc21 (stereo not shown) [Example 62, N-({N-[5-(tert-Butyl)-1-butyl-2-oxo(3H-benzo[f]1,4-diazepin-3-yl)]carbamoyl}cyclopentyl)-4-methylpentanamide] | 175 to 177 °C
CCCCC1=NC(NC(=O)C2(NC(=O)CCC(C)C)CCCC2)C(=O)N(Cc2ccccn2)c2ccccc21 (stereo not shown) [Example 63, N-({N-[5-Butyl-2-oxo-1-(2-pyridylmethyl)(3H-benzo[f]1,4-diazepin-3-yl)]carbamoyl}cyclopentyl)-4-methylpentanamide] | 63 to 67 °C
